Among the data in patent publication US20240101573A1, “MACROCYCLIC K-RAS G12C INHIBITOR, PREPARATION METHOD THEREFOR AND USE THEREOF” (Abbisko Therapeutics Co., Ltd., priority 2020, published 2024) are IC50 values, retold here.

Structures are written as SMILES.

The test system of one test is MIA PaCa-2. The test is described as follows: Anti-proliferation 2D CTG test (MIA PaCa-2). Format: cell-based. To be noted: MIAPACA-2 cells, 500 cells/well, 5 days incubation with compound, CTG readout. How it is done:
(§1) When the cell confluency was 80%, the cells were isolated with 0.25% trypsin. The isolated cells were resuspended in 5 mL of fresh cell culture medium and centrifuged to collect the cells. The number of cells were counted at the same time. Then, the cells were suspended in a culture medium at a moderate concentration. The cells were placed into a 96-well plate with 1500 cells/well for H358 and 500 cells/well for MIAPACA-2. The 96-well plate was placed in an incubator at 37° C. and incubated overnight.
(§2) 2) Day 1: processing of compound
(§3) A 2 mM stock solution was serially diluted at 10 points at a ratio of 1:3. 5× culture medium containing the compound was transferred to the corresponding wells of 96 wells. The final peak concentration of the compound was […], and the final concentration of DMSO was 0.5%. The 96-well plate was placed in the incubator at 37° C. and incubated for 5 days.
(§4) 3) Baseline reading. 4) Day 6: reading of signals
(§5) A detection reagent (CTG) was added at 50 μL/well, and the signals were read in an Envision instrument.
(§6) The percentage of inhibition ([…]) at each compound concentration was calculated based on the signals from the HPE and ZPE control wells contained in each assay plate and the fluorescence signals from individual compound wells. The inhibition rate in the ZPE control wells containing the enzyme and substrate was 0%, and the inhibition rate in the HPE control wells only containing the substrate was […]. By testing the compound in terms of numeric concentration and inhibition percentage, the compound concentration required for […] inhibition (IC50) was determined using a four-parameter logarithmic dose-response equation. The endpoint value (IC50) of the reference compound was evaluated in each experiment as a quality control measure. If the endpoint value was within three times the expected value, the experiment was considered acceptable.

The test system of the next test is H358. Briefly: Anti-proliferation 2D CTG test (H358). Format: cell-based. Conditions: H358 cells, 1500 cells/well, 5 days incubation with compound, CTG readout. How it is done:
as §1, §2, §3, §4, §5, §6

Where [1] appears, read: Homo sapiens, MIA PaCa-2, 120 h.

With `C=CC(=O)N1CCN(c2nc(=O)n3c4nc(c(F)cc24)-c2c(F)cccc2OCC(O)C(OC(=O)C(N)C(C)C)c2ccnc(C(C)C)c2-3)C(C)C1` [Example 23, 2^4-((S)-4-acryloyl-2-methylpiperazin-1-yl)-2^6,3^6-difluoro-6-hydroxy-1^2-isopropyl-2^2-oxo-2^1,2^2-dihydro-4-oxa-2(1,7)-pyrido[2,3-d]pyrimidina-1(3,4)-pyridina-3(1,2)-benzocycloheptane-7-yl L-valine ester], the IC50 with MIA PaCa-2 turned out to be 9 nM; in the test on H358 it was 11 nM.

On to `C=CC(=O)N1CCN(c2nc(=O)n3c4nc(c(F)cc24)-c2c(F)cccc2OCC(OCCF)C(O)c2ccnc(C(C)C)c2-3)[C@@H](C)C1` (stereo partly drawn) [Example 25, 2^4-((S)-4-acryloyl-2-methylpiperazin-1-yl)-2^6,3^6-difluoro-6-(2-fluoroethoxy)-7-hydroxy-1^2-isopropyl-2^1,2^2-dihydro-4-oxa-2(1,7)-pyrido[2,3-d]pyrimidina-1(3,4)-pyridina-3(1,2)-benzocycloheptane-2^2-one], for which the results for the 50% inhibitory concentration (IC50) in the test on MIA PaCa-2 and in the test on H358 were 15 nM and 36 nM, respectively.

`C=CC(=O)N1CCN(c2nc(=O)n3c4nc(c(F)cc24)-c2c(F)cccc2OCC(O)C(OC)c2ccnc(C(C)C)c2-3)[C@@H](C)C1` (stereo partly drawn) [Example 41, (R)-2^4-((S)-4-acryloyl-2-methylpiperazin-1-yl)-7-methoxy-2^6,3^6-difluoro-6-hydroxy-1^2-isopropyl-2^1,2^2-dihydro-4-oxa-2(1,7)-pyrido[2,3-d]pyrimidina-1(3,4)-pyridina-3(1,2)-benzocycloheptane-2^2-one]: the values for the 50% inhibitory concentration (IC50) with MIA PaCa-2 and in the test on H358 were 2 nM and 3 nM, respectively.

With `C=CC(=O)N1C[C@H](C)N(c2nc(=O)n3c4nc(c(F)cc24)-c2c(ccc(Cl)c2F)OCC(OCC)C(O)c2ccnc(C(C)C)c2-3)C[C@H]1C` (stereo partly drawn) [Example 71, 2^4-((2S,5R)-4-acryloyl-2,5-dimethylpiperazin-1-yl)-3^5-chloro-6-ethoxy-2^6,3^6-difluoro-7-hydroxy-1^2-isopropyl-2^1,2^2-dihydro-4-oxa-2(1,7)-pyrido[2,3-d]pyrimidina-1(3,4)-pyridina-3(1,2)-benzocycloheptane-2^2-one], the IC50 with MIA PaCa-2 stood at 3 nM; in the test on H358, 8 nM.

`C=CC(=O)N1CCN(c2nc(=O)n3c4nc(c(F)cc24)-c2c(F)cccc2OCC(OCC)C(O)c2ccnc(C(C)C)c2-3)[C@@H](C)C1` (stereo partly drawn) [Example 45, (R)-2^4-((S)-4-acryloyl-2-methylpiperazin-1-yl)-6-ethoxy-2^6,3^6-difluoro-7-hydroxy-1^2-isopropyl-2^1,2^2-dihydro-4-oxa-2(1,7)-pyrido[2,3-d]pyrimidina-1(3,4)-pyridina-3(1,2)-benzocycloheptane-2^2-one]: the IC50 in the test with MIA PaCa-2 and with H358 was 2 nM each time.

As for `C=CC(=O)N1C[C@H](C)N(c2nc(=O)n3c4nc(c(F)cc24)-c2c(ccc(Cl)c2F)OCC(O)C(O)c2ccnc(C(C)C)c2-3)C[C@H]1C` (stereo partly drawn) [Example 65, (R)-2^4-((2S,5R)-4-acryloyl-2,5-dimethylpiperazin-1-yl)-3^5-chloro-2^6,3^6-difluoro-6,7-dihydroxy-1^2-isopropyl-2^1,2^2-dihydro-4-oxa-2(1,7)-pyrido[2,3-d]pyrimidina-1(3,4)-pyridina-3(1,2)-benz ocycloheptane-2^2-one], the IC50 with MIA PaCa-2 (setting [1]) turned out to be 1 nM; in the test with H358 (Homo sapiens, NCI-H358, 120 h) it was 1 nM.

As for `C=CC(=O)N1CCN(c2nc(=O)n3c4nc(c(F)cc24)-c2c(F)cccc2OCC(OC(C)=O)C(OC(C)=O)c2ccnc(C(C)C)c2-3)[C@@H](C)C1` (stereo partly drawn) [Example 18-S, (S)-2^4-((S)-4-acryloyl-2-methylpiperazin-1-yl)-2^6,3^6-difluoro-1^2-isopropyl-2^2-oxo-2^1,2^2-dihydro-4-oxa-2(1,7)-pyrido[2,3-d]pyrimidina-1(3,4)-pyridina-3(1,2)-benzocycloheptane-6,7-diyl diacetate], the IC50 was 266 nM in the test with MIA PaCa-2 and 351 nM in the test on H358.

In the case of `C=CC(=O)N1C[C@H](C)N(c2nc(=O)n3c4nc(c(F)cc24)-c2c(F)cccc2OCC(O)C(O)c2ccnc(C(C)C)c2-3)C[C@H]1C` (stereo partly drawn) [Example 2, (R)-2^4-((2S,5R)-4-acryloyl-2,5-dimethylpiperazin-1-yl)-2^6,3^6-difluoro-6,7-dihydroxy-1^2-isopropyl-2^1,2^2-dihydro-4-oxa-2(1,7)-pyrido[2,3-d]pyrimidina-1(3,4)-pyridina-3(1,2)-benzocycloheptane-2^2-one], the values for the IC50 with MIA PaCa-2 and with H358 were 1 nM and 2 nM, respectively.

Regarding `C=CC(=O)N1CCN(c2nc(=O)n3c4nc(c(F)cc24)-c2c(F)cccc2OCC(O)C(OCC(F)F)c2ccnc(C(C)C)c2-3)[C@@H](C)C1` (stereo partly drawn) [Example 51, (R)-2^4-((S)-4-acryloyl-2-methylpiperazin-1-yl)-7-(2,2-difluoroethoxy)-2^6,3^6-difluoro-6-hydroxy-1^2-isopropyl-2^1,2^2-dihydro-4-oxa-2(1,7)-pyrido[2,3-d]pyrimidina-1(3,4)-pyridina-3(1,2)-benzocycloheptane-2^2-one], the IC50 worked out at 7 nM with MIA PaCa-2 and 10 nM in the test on H358.

With `C=CC(=O)N1CCN(c2nc(=O)n3c4nc(c(F)cc24)-c2c(F)cccc2OCC(O)C(OCC2CC2)c2ccnc(C(C)C)c2-3)[C@@H](C)C1` (stereo partly drawn) [Example 47, (R)-2^4-((S)-4-acryloyl-2-methylpiperazin-1-yl)-7-(cyclopropylmethoxy)-2^6,3^6-difluoro-6-hydroxy-1^2-isopropyl-2^1,2^2-dihydro-4-oxa-2(1,7)-pyrido[2,3-d]pyrimidina-1(3,4)-pyridina-3(1,2)-benzocycloheptane-2^2-one], the IC50 in the test with MIA PaCa-2 (setting [1]) was determined as 5 nM; in the test on H358 (Homo sapiens, NCI-H358, 120 h), 9 nM.

With `C=CC(=O)N1CCN(c2nc(=O)n3c4nc(c(F)cc24)-c2c(F)cccc2OCC(OC(C)=O)C(OC(C)=O)c2ccnc(C(C)C)c2-3)[C@@H](C)C1` (stereo partly drawn) [Example 18-R, (R)-2^4-((S)-4-acryloyl-2-methylpiperazin-1-yl)-2^6,3^6-difluoro-1^2-isopropyl-2^2-oxo-2^1,2^2-dihydro-4-oxa-2(1,7)-pyrido[2,3-d]pyrimidina-1(3,4)-pyridina-3(1,2)-benzocycloheptane-6,7-diyl diacetate], the figures for the IC50 in the test on MIA PaCa-2 and in the test with H358 were 15 nM and 16 nM, respectively.

Take `C=CC(=O)N1CCN(c2nc(=O)n3c4nc(c(F)cc24)-c2c(F)cccc2OCC(=O)C(OCC)c2ccnc(C(C)C)c2-3)[C@@H](C)C1` (some centres unmarked) [Example 22]: the half-maximal inhibitory concentration (IC50) with MIA PaCa-2 (setting [1]) turned out to be 7 nM; with H358 (Homo sapiens, NCI-H358, 120 h), 14 nM.

Take `C=CC(=O)N1CCN(c2nc(=O)n3c4nc(c(F)cc24)-c2c(F)cccc2OCC(O)C(OCC)c2ccnc(C(C)C)c2-3)[C@@H](C)C1` (stereo partly drawn) [Example 44, (S)-2^4-((S)-4-acryloyl-2-methylpiperazin-1-yl)-7-ethoxy-2^6,3^6-difluoro-6-hydroxy-1^2-isopropyl-2^1,2^2-dihydro-4-oxa-2(1,7)-pyrido[2,3-d]pyrimidina-1(3,4)-pyridina-3(1,2)-benzocycloheptane-2^2-one]: the IC50 amounted to 125 nM with MIA PaCa-2 and 250 nM in the test with H358.

For the molecule `C=CC(=O)N1C[C@H](C)N(c2nc(=O)n3c4nc(c(F)cc24)-c2c(ccc(Cl)c2F)OCC(O)C(OCC)c2ccnc(C(C)C)c2-3)C[C@H]1C` (stereo partly drawn) [Example 76, (R)-2^4-((2S,5R)-4-acryloyl-2,5-dimethylpiperazin-1-yl)-3^5-chloro-7-ethoxy-2^6,3^6-difluoro-6-hydroxy-1^2-isopropyl-2^1,2^2-dihydro-4-oxa-2(1,7)-pyrido[2,3-d]pyrimidina-1(3,4)-pyridina-3(1,2)-benzocycloheptane-2^2-one], the IC50 in the test on MIA PaCa-2 and with H358 was 4 nM each time.

Consider `C=CC(=O)N1CCN(c2nc(=O)n3c4nc(c(F)cc24)-c2c(F)cccc2OCC(OCC)C(OCC)c2ccnc(C(C)C)c2-3)[C@@H](C)C1` (stereo partly drawn) [Example 60, 2^4-((S)-4-acryloyl-2-methylpiperazin-1-yl)-6,7-diethoxy-2^6,3^6-difluoro-1^2-isopropyl-2^1,2^2-dihydro-4-oxa-2(1,7)-pyrido[2,3-d]pyrimidina-1(3,4)-pyridina-3(1,2)-benzocycloheptane-2^2-one], for which the IC50 with MIA PaCa-2 (setting [1]) came out at 38 nM; in the test with H358 (Homo sapiens, NCI-H358, 120 h), 45 nM.

For `C=CC(=O)N1CCN(c2nc(=O)n3c4nc(c(F)cc24)-c2c(F)cccc2OCC(O)C(OC)c2ccnc(C(C)C)c2-3)[C@@H](C)C1` (stereo partly drawn) [Example 26, 2^4-((S)-4-acryloyl-2-methylpiperazin-1-yl)-7-methoxy-2^6,3^6-difluoro-6-hydroxy-1^2-isopropyl-2^1,2^2-dihydro-4-oxa-2(1,7)-pyrido[2,3-d]pyrimidina-1(3,4)-pyridina-3(1,2)-benzocycloheptane-2^2-one], the figures for the IC50 with MIA PaCa-2 and with H358 were 1 nM and 2 nM, respectively.
